Measurements as given in patent US5981704A, “Kainate-binding, human CNS receptors of the EAA2 family” (Allelix Biopharmaceutical, priority 1997, dated 1999).

Assays:
human EAA2a receptor [1] = biological target: T1, human EAA2a receptor (Homo sapiens, UniProt Q16478); assay: [3H]-kainate binding assay (Scatchard analysis and displacement) on membranes of transfected COS-1 cells; details: for rank order of potency in displacement of [3H]-labelled kainate binding: FIG. 6
T1 construct: This modification permitted the full length cDNA insert to be released as a 3.7 kb NotI/NotI fragment; expressed in transfected cells; host or cells: COS-1 (ATCC CRL 1650), transient, plasmid pcDNA1/humEAA2a; membranes
T1 sequence (Q16478 15-980): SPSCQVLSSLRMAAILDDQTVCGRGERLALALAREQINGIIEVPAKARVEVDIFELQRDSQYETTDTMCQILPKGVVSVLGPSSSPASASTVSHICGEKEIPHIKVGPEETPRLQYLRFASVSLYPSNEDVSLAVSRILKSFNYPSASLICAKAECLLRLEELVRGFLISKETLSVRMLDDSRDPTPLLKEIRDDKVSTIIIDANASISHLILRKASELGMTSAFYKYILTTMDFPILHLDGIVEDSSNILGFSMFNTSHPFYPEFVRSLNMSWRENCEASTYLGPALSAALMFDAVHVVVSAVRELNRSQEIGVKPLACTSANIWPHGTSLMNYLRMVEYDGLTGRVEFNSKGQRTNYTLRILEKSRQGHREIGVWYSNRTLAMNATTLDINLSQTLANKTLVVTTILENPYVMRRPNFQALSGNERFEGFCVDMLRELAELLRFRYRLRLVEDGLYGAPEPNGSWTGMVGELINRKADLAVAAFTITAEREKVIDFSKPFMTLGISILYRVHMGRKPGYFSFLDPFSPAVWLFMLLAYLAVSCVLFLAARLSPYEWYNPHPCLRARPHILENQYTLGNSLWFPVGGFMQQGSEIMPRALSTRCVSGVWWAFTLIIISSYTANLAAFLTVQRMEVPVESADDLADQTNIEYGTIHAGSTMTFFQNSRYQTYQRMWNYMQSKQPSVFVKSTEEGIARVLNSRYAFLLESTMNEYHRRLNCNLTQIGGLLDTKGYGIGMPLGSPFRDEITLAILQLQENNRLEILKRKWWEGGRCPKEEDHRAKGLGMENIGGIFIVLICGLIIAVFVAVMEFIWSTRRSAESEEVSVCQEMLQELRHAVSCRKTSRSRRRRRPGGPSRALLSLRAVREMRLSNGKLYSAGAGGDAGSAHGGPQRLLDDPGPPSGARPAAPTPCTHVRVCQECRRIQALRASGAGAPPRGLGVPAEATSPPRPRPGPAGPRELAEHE
Protocol: (§1) Transfected cells in the frozen state were resuspended in ice-cold distilled water using a hand homogenizer and centrifuged for 20 minutes at 50,000 g. The supernatant was discarded and the membrane pellet stored frozen at -70° C.
(§2) COS cell membrane pellets were suspended in ice cold 50 mM Tris-HCl (pH 7.55, 5C) and placed inside Spectrapor 7 (EDTA-treated, sulfur-fee) dialysis tubing. The suspension was placed in 4 liters of ice cold 50 mM Tris-HCl (pH 7.55, 5C) and dialyzed for 16-24 hours at 5C in order to remove endogenous glutamate that would compete for binding. The tissue suspension was recovered from the tubing along with a small volume of buffer used to rinse the tubing. This resultant membrane preparation was used as tissue source for binding experiments described below. Proteins were determined using the Pierce Reagent with BSA as standard.
Binding assays were then performed, using an amount of COS-derived membrane equivalent to from 25-100 ug as judged by protein determination and selected radiolabelled ligand. In particular, glutamate binding assays entailed formation of an incubation mixture consisting of 25-100 ug of tissue protein, and [3.4-3H]L-glutamic acid (47.3 Ci/mmole, 10 nM final) in 50 mM Tris-HCl (pH 7.55, 5C) in 1 ml final volume. Non-specific binding was in the presence of 1 mM L-glutamate. Samples were incubated on ice for 60 minutes in plastic minivials. Bound and free ligand were separated by centrifugation for 10 minutes at 50,000 g (4° C.). Tissue pellets were washed superficially with 2×6 ml of ice cold incubation buffer. Pellets were solubilized and counted in 5 ml of Beckman Ready Protein Scintillation cocktail.
For kainate binding assays, incubation mixtures consisted of 25-100 μg tissue protein and [vinylidene-3H] kainic acid (58 Ci/mmole, 5 nM final) in the cold incubation buffer, 1 ml final volume. Non-specific binding was in the presence of 1 mM L-glutamate. Samples were incubated as for the glutamate binding assays, and bound and free ligand were separated by rapid filtration using a Brandel cell harvester and GF/B filters pro-soaked in ice-cold 0.3% polyethyleneimine. Filters were washed twice in 6 ml of the cold incubation buffer, then placed in scintillation vials with 5 ml of Beckman Ready-Safe scintillation cocktail for counting.

human EAA2a receptor [2] = biological target: T1, human EAA2a receptor; assay: [3H]-glutamate binding assay on membranes of transfected COS-1 cells; details: [3H]-glutamate at 10 nM; non-specific binding with 1 mM L-glutamate
Protocol: as §1, §2
Binding assays were then performed, using an amount of COS-derived membrane equivalent to from 25-100 ug as judged by protein determination and selected radiolabelled ligand. In particular, glutamate binding assays entailed formation of an incubation mixture consisting of 25-100 ug of tissue protein, and [3.4-3H]L-glutamic acid (47.3 Ci/mmole, 10 nM final) in 50 mM Tris-HCl (pH 7.55, 5C) in 1 ml final volume. […] Pellets were solubilized and counted in 5 ml of Beckman Ready Protein Scintillation cocktail.

For N[C@@]1(C(=O)O)CC[C@@H](C(=O)O)C1 [1S,3R-ACPD], the displacement of kainate (human EAA2a receptor [1]; concentrations up to 100 uM) was “No displacement”.

With N#Cc1cc2[nH]c(=O)c(=O)[nH]c2cc1[N+](=O)[O-] [CNQX] the “rank order of potency in displacement of [3H]-labelled kainate binding” value (shortened to “rank order of potency”) (human EAA2a receptor [1]) was “kainate>domoate>quisqualate>glutamate>DNQX>dihydrokainate>CNQX>AMPA”.

With O=c1[nH]c2cc([N+](=O)[O-])c([N+](=O)[O-])cc2[nH]c1=O [DNQX] the “rank order of potency” value (human EAA2a receptor [1]) was “kainate>domoate>quisqualate>glutamate>DNQX>dihydrokainate>CNQX>AMPA”.

In the case of CC(C)[C@H]1CN[C@H](C(=O)O)[C@H]1CC(=O)O [dihydrokainate], the “rank order of potency” value (human EAA2a receptor [1]) is reported as “kainate>domoate>quisqualate>glutamate>DNQX>dihydrokainate>CNQX>AMPA”.

In the case of C/C(=C/C=C/[C@@H](C)C(=O)O)[C@H]1CN[C@H](C(=O)O)[C@H]1CC(=O)O [domoate], the “rank order of potency” value (human EAA2a receptor [1]) is reported as “kainate>domoate>quisqualate>glutamate>DNQX>dihydrokainate>CNQX>AMPA”.

For N[C@@H](CCC(=O)O)C(=O)O [glutamate, L-glutamic acid], the “rank order of potency” value (human EAA2a receptor [1]) was “kainate>domoate>quisqualate>glutamate>DNQX>dihydrokainate>CNQX>AMPA” and the “specific binding of labelled ligand” value (human EAA2a receptor [2]) was “specific”.

With C=C(C)[C@H]1CN[C@H](C(=O)O)[C@H]1CC(=O)O [kainate, kainic acid] the Kd (human EAA2a receptor [1]) was 2.9 nM, the “rank order of potency” value (human EAA2a receptor [1]) was “kainate>domoate>quisqualate>glutamate>DNQX>dihydrokainate>CNQX>AMPA” and the “maximum binding (Bmax)” value (human EAA2a receptor [1]; Scatchard analysis of [3H]-kainate binding) was 691 fmol/mg protein. For the same molecule, the “specific binding of labelled ligand” value (human EAA2a receptor [1]; [3H]-kainate at 5 nM, non-specific binding with 1 mM L-glutamate) was “specific” and the “kainate binding affinity (in words)” value (human EAA2a receptor [1]; nanomolar range) was “high affinity”.

N[C@@H](Cn1oc(=O)[nH]c1=O)C(=O)O [quisqualate] was tested, and the “rank order of potency” value (human EAA2a receptor [1]) was “kainate>domoate>quisqualate>glutamate>DNQX>dihydrokainate>CNQX>AMPA”.
